Our source for the remaining binding values is article PMC7486443, “Generation of Phenothiazine with Potent Anti-TLK1 Activity for Prostate Cancer Therapy” (iScience, 2020).

Holding throughout (assay): biochemical
What all share (set-up): DiscoverX KINOMEscan scanMAX competition binding panel, single concentration, percent of control; remaining binding: dose or concentration left out as unconfirmed
Holding throughout (settings): KINOMEscan binding, percent of control; read-out: Table S4_SCANMAX REPORT - related to Fig. 1 / Percent Control

The target in test [1] is T1, RSK3(Kin.Dom.1-N-terminal) (Homo sapiens, UniProt Q15349).
T1 construct: gene RPS6KA2; Kin.Dom.1-N-terminal

Test [2] has as its target MST1R (Homo sapiens, UniProt Q04912).
The target of test [3] is T2, NDR2 (Homo sapiens, UniProt Q9Y2H1).
T2 construct: gene STK38L

The target of test [4] is BMX (Homo sapiens, UniProt P51813).
In test [5] the target is AKT3 (Homo sapiens, UniProt Q9Y243).
Test [6] addresses T3, CAMK1B (Homo sapiens, UniProt Q6P2M8).
T3 construct: gene PNCK

Test [7] concerns the target NEK4 (Homo sapiens, UniProt P51957).
Test [8] deals with T4, p38-alpha (Homo sapiens, UniProt Q16539).
T4 construct: gene MAPK14

The target of test [9] is MARK3 (Homo sapiens, UniProt P27448).
Test [10] concerns the target BMPR2 (Homo sapiens, UniProt Q13873).
Test [11] concerns the target T5, FAK (Homo sapiens, UniProt Q05397).
T5 construct: gene PTK2

Test [12] concerns the target T6, ERK8 (Homo sapiens, UniProt Q8TD08).
T6 construct: gene MAPK15

The target of test [13] is T7, NIM1 (Homo sapiens, UniProt Q8IY84).
T7 construct: gene NIM1K

Test [14] concerns the target T8, MST2 (Homo sapiens, UniProt Q13188).
T8 construct: gene STK3

The target in test [15] is T9, TRKA (Homo sapiens, UniProt P04629).
T9 construct: gene NTRK1

In test [16] the target is CDK8 (Homo sapiens, UniProt P49336).
Test [17] concerns the target T10, YSK4 (Homo sapiens, UniProt Q56UN5).
T10 construct: gene MAP3K19

Test [18] concerns the target MET(Y1235D) (Homo sapiens, UniProt P08581, Y1235D).

T8 sequence (Q13188 whole entry): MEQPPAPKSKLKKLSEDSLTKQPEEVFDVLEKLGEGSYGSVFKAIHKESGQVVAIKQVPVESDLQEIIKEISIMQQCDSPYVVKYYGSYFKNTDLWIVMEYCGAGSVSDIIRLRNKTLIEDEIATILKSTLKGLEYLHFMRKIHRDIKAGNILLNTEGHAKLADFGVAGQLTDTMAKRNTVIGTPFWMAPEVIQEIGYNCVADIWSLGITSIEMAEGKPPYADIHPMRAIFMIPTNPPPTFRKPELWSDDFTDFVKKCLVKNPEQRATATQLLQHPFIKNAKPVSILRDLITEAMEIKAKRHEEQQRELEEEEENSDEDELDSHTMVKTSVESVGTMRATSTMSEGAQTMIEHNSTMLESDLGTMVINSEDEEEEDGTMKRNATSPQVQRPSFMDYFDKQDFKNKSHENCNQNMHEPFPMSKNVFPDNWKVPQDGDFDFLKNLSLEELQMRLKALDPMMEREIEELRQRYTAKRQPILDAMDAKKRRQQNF
BMX, sequence (P51813 whole entry): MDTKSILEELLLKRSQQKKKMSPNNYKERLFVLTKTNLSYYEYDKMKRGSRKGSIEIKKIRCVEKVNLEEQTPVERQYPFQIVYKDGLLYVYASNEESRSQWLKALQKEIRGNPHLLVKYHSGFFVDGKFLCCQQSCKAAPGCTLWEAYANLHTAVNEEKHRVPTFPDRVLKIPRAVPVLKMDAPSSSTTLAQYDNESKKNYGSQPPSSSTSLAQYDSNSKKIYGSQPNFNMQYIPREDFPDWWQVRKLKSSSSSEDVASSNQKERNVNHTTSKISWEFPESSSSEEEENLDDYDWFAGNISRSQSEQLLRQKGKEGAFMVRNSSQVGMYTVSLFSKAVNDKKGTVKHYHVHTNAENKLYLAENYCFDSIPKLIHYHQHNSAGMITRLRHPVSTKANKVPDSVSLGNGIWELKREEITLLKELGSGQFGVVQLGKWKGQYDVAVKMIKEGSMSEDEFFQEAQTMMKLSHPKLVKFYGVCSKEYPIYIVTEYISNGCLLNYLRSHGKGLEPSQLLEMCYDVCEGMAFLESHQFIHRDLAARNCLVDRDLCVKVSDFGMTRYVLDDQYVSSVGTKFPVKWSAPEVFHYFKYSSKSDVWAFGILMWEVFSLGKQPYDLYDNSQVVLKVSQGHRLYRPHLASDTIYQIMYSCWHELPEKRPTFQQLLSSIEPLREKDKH
MET(Y1235D), sequence (P08581 whole entry Y1235D): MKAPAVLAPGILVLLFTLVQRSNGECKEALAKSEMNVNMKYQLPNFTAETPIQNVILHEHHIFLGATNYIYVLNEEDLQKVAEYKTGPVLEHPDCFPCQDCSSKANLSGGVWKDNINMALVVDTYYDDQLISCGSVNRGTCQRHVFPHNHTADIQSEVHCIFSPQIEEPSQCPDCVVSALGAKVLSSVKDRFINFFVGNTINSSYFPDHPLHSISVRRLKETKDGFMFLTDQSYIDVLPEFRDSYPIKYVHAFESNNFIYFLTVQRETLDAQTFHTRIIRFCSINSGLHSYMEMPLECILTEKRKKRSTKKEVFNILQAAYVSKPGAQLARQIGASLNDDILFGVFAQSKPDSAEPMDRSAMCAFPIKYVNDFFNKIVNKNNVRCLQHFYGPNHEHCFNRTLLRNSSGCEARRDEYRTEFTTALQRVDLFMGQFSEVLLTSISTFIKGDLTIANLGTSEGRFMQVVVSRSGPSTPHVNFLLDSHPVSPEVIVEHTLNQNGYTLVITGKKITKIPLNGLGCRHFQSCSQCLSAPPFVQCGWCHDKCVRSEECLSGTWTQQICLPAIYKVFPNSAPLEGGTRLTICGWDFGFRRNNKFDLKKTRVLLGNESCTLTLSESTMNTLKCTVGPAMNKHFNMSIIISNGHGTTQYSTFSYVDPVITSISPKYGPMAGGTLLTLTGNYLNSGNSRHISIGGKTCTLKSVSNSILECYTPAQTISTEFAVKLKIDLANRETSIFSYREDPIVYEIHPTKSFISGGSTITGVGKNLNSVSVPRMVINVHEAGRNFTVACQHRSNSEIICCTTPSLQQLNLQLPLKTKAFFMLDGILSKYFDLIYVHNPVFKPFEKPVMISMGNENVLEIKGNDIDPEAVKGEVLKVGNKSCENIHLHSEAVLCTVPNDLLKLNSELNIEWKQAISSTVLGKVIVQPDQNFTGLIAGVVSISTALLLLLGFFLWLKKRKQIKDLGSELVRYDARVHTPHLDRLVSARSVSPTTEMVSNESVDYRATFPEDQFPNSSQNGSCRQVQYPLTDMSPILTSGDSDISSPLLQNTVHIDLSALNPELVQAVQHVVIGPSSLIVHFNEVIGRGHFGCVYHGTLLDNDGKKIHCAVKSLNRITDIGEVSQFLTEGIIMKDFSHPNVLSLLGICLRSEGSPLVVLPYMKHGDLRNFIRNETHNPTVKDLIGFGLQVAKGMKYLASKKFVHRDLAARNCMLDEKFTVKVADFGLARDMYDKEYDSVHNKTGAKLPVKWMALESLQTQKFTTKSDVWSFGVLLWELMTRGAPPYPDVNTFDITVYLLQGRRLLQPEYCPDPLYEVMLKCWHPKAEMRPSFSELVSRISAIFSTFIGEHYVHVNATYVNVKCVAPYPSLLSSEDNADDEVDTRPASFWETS
T4 sequence (Q16539 whole entry): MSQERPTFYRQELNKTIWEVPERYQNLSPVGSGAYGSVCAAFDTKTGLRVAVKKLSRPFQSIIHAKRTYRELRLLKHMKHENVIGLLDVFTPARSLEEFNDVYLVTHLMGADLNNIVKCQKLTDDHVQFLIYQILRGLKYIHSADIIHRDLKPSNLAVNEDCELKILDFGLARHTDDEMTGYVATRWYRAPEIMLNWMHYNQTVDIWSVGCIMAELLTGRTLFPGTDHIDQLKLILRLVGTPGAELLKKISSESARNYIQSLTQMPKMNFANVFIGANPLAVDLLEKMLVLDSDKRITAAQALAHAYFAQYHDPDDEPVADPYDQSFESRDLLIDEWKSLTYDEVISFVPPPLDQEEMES
MST1R, sequence (Q04912 whole entry): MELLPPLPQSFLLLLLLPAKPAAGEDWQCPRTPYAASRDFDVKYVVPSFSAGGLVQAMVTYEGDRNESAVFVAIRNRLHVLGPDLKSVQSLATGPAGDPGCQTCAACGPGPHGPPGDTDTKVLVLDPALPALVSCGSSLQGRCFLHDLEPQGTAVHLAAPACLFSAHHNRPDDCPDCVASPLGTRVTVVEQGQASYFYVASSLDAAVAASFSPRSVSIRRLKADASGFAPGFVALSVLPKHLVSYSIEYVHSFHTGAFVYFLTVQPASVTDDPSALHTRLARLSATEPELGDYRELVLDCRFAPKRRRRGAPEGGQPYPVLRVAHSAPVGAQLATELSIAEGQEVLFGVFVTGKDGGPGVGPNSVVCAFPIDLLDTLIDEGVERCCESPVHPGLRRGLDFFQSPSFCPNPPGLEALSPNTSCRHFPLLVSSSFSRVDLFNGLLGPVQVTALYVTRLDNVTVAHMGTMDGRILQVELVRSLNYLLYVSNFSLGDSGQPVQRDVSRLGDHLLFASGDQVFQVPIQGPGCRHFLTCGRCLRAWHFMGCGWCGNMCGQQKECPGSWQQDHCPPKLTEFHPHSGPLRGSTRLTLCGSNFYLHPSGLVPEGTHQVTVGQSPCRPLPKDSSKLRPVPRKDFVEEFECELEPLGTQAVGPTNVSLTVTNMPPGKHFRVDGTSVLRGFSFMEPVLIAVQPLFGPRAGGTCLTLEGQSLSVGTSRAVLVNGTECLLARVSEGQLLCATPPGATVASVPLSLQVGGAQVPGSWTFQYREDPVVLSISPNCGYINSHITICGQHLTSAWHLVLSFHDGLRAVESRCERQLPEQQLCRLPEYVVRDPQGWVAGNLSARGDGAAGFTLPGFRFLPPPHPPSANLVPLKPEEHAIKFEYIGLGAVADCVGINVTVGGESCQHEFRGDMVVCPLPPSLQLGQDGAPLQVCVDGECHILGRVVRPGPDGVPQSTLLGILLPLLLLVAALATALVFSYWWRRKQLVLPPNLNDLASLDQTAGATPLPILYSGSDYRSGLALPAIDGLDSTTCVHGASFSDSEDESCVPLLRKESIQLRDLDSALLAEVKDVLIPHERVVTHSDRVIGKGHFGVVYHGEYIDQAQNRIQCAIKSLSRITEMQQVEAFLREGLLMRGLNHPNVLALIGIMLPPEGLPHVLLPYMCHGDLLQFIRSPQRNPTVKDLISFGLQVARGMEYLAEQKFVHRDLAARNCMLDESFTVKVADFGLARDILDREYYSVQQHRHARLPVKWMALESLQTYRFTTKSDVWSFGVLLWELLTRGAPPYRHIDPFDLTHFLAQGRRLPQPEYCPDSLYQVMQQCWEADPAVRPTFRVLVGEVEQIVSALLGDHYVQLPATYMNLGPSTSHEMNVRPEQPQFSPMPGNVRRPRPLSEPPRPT
AKT3, sequence (Q9Y243 whole entry): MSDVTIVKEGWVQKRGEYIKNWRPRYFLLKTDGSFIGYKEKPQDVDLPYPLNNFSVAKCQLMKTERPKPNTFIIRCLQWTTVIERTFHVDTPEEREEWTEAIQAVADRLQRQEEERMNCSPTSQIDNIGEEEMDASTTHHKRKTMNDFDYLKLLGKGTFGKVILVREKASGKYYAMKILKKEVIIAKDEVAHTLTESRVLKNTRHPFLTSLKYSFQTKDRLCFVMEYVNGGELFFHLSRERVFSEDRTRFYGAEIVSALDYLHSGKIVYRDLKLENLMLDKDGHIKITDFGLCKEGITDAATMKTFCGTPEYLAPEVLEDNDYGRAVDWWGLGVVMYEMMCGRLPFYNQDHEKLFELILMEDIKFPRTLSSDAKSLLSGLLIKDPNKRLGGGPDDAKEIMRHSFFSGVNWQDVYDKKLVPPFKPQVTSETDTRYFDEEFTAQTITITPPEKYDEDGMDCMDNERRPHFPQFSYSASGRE

In the case of `c1ccc2c(c1)Sc1ccccc1N2CCN1CCOCC1` [J54], the remaining binding was 100% in [1]; 100% in test [2]; 100% in test [3]; 100% in test [4]; 84% in test [5]; 94% in test [6]. Also, the remaining binding in [7] was determined as 100%; in [8], 100%; in [9], 100%; in test [10] it was 100%; in [11] it was 92%; in test [12], 89%. In addition, the remaining binding is 100% in test [13]; 100% in [14]; 82% in [15]; 100% in [16]; 86% in [17]; 80% in test [18].
